Molecules are shown by their SMILES.

22 compounds from US20240228488A1 (TAKEDA PHARMACEUTICAL COMPANY LIMITED, priority 2021, published 2024) can be followed below.

Sequence of human activated kallikrein enzyme (P03952 391-638 limits assumed): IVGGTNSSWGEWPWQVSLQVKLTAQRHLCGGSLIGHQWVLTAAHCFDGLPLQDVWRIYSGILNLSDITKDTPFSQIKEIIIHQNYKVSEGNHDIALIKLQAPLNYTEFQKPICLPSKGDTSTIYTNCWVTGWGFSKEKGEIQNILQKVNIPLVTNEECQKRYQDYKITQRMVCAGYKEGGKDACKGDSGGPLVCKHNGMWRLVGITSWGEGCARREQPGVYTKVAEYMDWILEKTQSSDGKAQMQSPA
Sequence of human activated kallikrein enzyme (P03952 20-390 partner limits assumed): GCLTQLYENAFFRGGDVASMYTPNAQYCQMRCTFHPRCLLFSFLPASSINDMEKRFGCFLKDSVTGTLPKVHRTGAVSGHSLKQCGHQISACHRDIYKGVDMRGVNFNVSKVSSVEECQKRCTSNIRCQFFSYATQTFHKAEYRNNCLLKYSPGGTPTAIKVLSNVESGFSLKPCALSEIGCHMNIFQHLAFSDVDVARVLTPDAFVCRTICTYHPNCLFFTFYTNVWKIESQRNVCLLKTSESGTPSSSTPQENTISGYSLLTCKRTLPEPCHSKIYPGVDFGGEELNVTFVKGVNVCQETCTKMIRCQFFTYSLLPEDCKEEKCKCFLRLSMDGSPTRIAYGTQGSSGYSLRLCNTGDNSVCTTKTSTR

For this experiment, the target named is human activated kallikrein enzyme (Homo sapiens, UniProt P03952). Nature of the experiment: Plasma kallikrein inhibition, fluorogenic PFR-AMC substrate, 500 pM activated kallikrein format. In kind it is biochemical. The following applies: 500 pM activated kallikrein, 300 uM PFR-AMC, 30 min preincubation, 10 min reaction; read-out: Primary Dose Response Assay: Average EC50. As to the method:
Compounds were evaluated for inhibition of the human activated kallikrein enzyme in two formats of an assay employing a fluorogenic peptide substrate. In one assay format, the concentrations of reagents were as follows: 20 mM Tris pH 7.5, 1 mM EDTA, 150 mM sodium chloride, 0.1% PEG-400, 0.1% Triton X-100, 500 pM activated kallikrein enzyme, 300 uM Pro-Phe-Arg-7-amido-4-methylcoumarin (PFR-AMC) substrate. Prior to reaction initiation with substrate, enzyme and inhibitors were preincubated for 30 min at room temperature. After initiation with substrate, reactions were incubated for 10 min at room temperature and fluorescence emission at 460 nm from 380 nm excitation measured with a microplate reader. In another assay format, the concentrations of reagents were as follows: 20 mM Tris pH 7.5, 1 mM EDTA, 150 mM sodium chloride, 0.1% PEG-400, 0.1% Triton X-100, 5 pM activated kallikrein enzyme, 300 uM PFR-AMC substrate. Prior to reaction initiation with substrate, enzyme and inhibitors were preincubated for 30 min at room temperature. After initiation with substrate, reactions were incubated for 18 hr at room temperature and fluorescence emission at 460 nm from 380 nm excitation measured with a microplate reader.
Table 49 provides the results of the assay in the format with 500 pM activated kallikrein assay. For the compounds listed in Table 49, the EC50 values are reported according to the following ranges: A≤1.0 nM; 1.0 nM<B≤10 nM; 10 nM<C≤100 nM; 100 nM<D≤1000 nM; 1000 nM<E≤6000 nM; 6000 nM<F.
Table 51 provides comparative plasma kallikrein inhibition potency in the assay format with 500 pM activated kallikrein assay (described in detail in a preceding example). For the compounds listed in Table 51, the EC50 values are reported according to the following ranges: A≤1.0 nM; 1.0 nM<B≤10 nM; 10 nM<C≤100 nM; 100 nM<D≤1000 nM; 1000 nM<E≤6000 nM; 6000 nM<F.
As a reminder, the EC50 is the concentration that produces a half-maximal response. Regarding `C[C@H]1[C@H](C(=O)Nc2cc(NCc3cn4cc(C5CC5)ccc4n3)ncn2)[C@H]1c1cccc(Cl)c1` (single isomer, unassigned) [Example 507, (1R*,2R*,3S*)-2-(3-chlorophenyl)-N-(6-(((6-cyclopropylimidazo[1,2-a]pyridin-2-yl)methyl)amino)pyrimidin-4-yl)-3-methylcyclopropane-1-carboxamide], the EC50 was over 6000 nM.

Turning to `O=C(O)c1nc(NCc2cn3cc(C4CC4)ccc3n2)cc(NC(=O)[C@H]2C[C@@H]2c2cccc(Cl)c2)n1` (racemic) [Example 112, rac-4-((1S*,2S*)-2-(3-chlorophenyl)cyclopropane-1-carboxamido)-6-(((6-cyclopropylimidazo[1,2-a]pyridin-2-yl)methyl)amino)pyrimidine-2-carboxylic acid], the concentration for a half-maximal effect (EC50) is 1 to 10 nM.

As for `Cc1ccnc([C@H]2C[C@@H]2C(=O)Nc2cc(C#N)cc(NCc3cn4cc(C5CC5)cc(N5CC(=O)N(C)C5=O)c4n3)c2)n1` [Example I-655, (1S,2S)—N-(3-cyano-5-(((6-cyclopropyl-8-(3-methyl-2,4-dioxoimidazolidin-1-yl)imidazo[1,2-a]pyridin-2-yl)methyl)amino)phenyl)-2-(4-methylpyrimidin-2-yl)cyclopropane-1-carboxamide], the EC50 is under 1 nM.

On to `Cc1ccnc([C@H]2C[C@@H]2C(=O)Nc2cc(F)c(Cl)c(NCc3cn4cc(C5CC5)cc(N5CC(=O)N(C)C5=O)c4n3)c2)n1` [Example 658, (1S,2S)—N-(4-chloro-3-(((6-cyclopropyl-8-(3-methyl-2,4-dioxoimidazolidin-1-yl)imidazo[1,2-a]pyridin-2-yl)methyl)amino)-5-fluorophenyl)-2-(4-methylpyrimidin-2-yl)cyclopropane-1-carboxamide], for which the EC50 was under 1 nM.

`N#Cc1ccc(Cl)cc1[C@H]1C[C@@H]1C(=O)Nc1nccc2nn(Cc3cn4cc(C5CC5)ccc4n3)cc12` (racemic) [Example 579, rac-(1S*,2S*)-2-(5-chloro-2-cyanophenyl)-N-(2-((6-cyclopropylimidazo[1,2-a]pyridin-2-yl)methyl)-2H-pyrazolo[4,3-c]pyridin-4-yl)cyclopropane-1-carboxamide]: the EC50 is under 1 nM.

As for `Cc1ccnc([C@@H]2C[C@H]2C(=O)Nc2cc(NCc3cn4cc(C5CC5)cc(N5CC(=O)N(C)C5=O)c4n3)ncn2)n1` (single isomer, unassigned) [Example I-261], the EC50 was 10 to 100 nM.

In the case of `O=C(Nc1nccc2nn(Cc3cn4cc(C5CC5)ccc4n3)cc12)[C@H]1C[C@@H]1c1cc(Cl)ccc1-n1cnnn1` (racemic) [Example 586, rac-(1S*,2S*)-2-(5-chloro-2-(1H-tetrazol-1-yl)phenyl)-N-(2-((6-cyclopropylimidazo[1,2-a]pyridin-2-yl)methyl)-2H-pyrazolo[4,3-c]pyridin-4-yl)cyclopropane-1-carboxamide], the 50% effective concentration (EC50) is under 1 nM.

With `O=C(Nc1cc(NCc2cn3cc(C4CC4)ccc3n2)nc(N2CCCC2)n1)[C@@H]1C[C@H]1c1cccc(Cl)c1` (racemic) [Example 105, rac-(1S*,2S*)-2-(3-chlorophenyl)-N-(6-(((6-cyclopropylimidazo[1,2-a]pyridin-2-yl)methyl)amino)-2-(pyrrolidin-1-yl)pyrimidin-4-yl)cyclopropane-1-carboxamide], the concentration giving a half-maximal response (EC50) is 100 to 1000 nM.

For the compound `C[C@H]1[C@H](C(=O)Nc2cc(NCc3cn4cc(C5CC5)ccc4n3)ncn2)[C@H]1c1cccc(Cl)c1` (single isomer, unassigned) [Example 505, (1R*,2R*,3S*)-2-(3-chlorophenyl)-N-(6-(((6-cyclopropylimidazo[1,2-a]pyridin-2-yl)methyl)amino)pyrimidin-4-yl)-3-methylcyclopropane-1-carboxamide], the EC50 lay within 10 to 100 nM.

On to `COc1ccc(CN2C(=O)CN(c3cc(C4CC4)cn4cc(CNc5ccnc(NC(=O)[C@H]6C[C@@H]6c6cccc(Cl)c6)c5)nc34)C2=O)cc1` [Example I-22, (1S,2S)-2-(3-chlorophenyl)-N-(4-(((6-cyclopropyl-8-(3-(4-methoxybenzyl)-2,4-dioxoimidazolidin-1-yl)imidazo[1,2-a]pyridin-2-yl)methyl)amino)pyridin-2-yl)cyclopropane-1-carboxamide], for which the EC50 is 10 to 100 nM.

Regarding `CN1CC(=O)N(c2cc(C3CC3)cn3cc(CNc4cc(NC(=O)[C@H]5C[C@@H]5c5cccc(Cl)c5)ncn4)nc23)C1=O` [Example I-171, (1S,2S)-2-(3-chlorophenyl)-N-(6-(((6-cyclopropyl-8-(3-methyl-2,5-dioxoimidazolidin-1-yl)imidazo[1,2-a]pyridin-2-yl)methyl)amino)pyrimidin-4-yl)cyclopropane-1-carboxamide], the EC50 lay within 1 to 10 nM.

As for `Cc1ccnc([C@H]2C[C@@H]2C(=O)Nc2cc(OC(C)c3cn4cc(C5CC5)cc(N5CC(=O)NC5=O)c4n3)cnn2)n1` (stereo partly drawn) [Example 39, (1S,2S)—N-(5-(1-(6-cyclopropyl-8-(2,4-dioxoimidazolidin-1-yl)imidazo[1,2-a]pyridin-2-yl)ethoxy)pyridazin-3-yl)-2-(4-methylpyrimidin-2-yl)cyclopropane-1-carboxamide], the EC50 fell in the range of 1 to 10 nM.

For the compound `CN(C)C1CCN(c2cc(C3CC3)cn3cc(CNc4cc(NC(=O)[C@H]5C[C@@H]5c5cccc(Cl)c5)ncn4)nc23)C1` (single isomer, unassigned) [Example I-15], the 50% effective concentration (EC50) fell in the range of 1 to 10 nM.

`O=C(Nc1cc(NCc2cn3cc(C4CC4)ccc3n2)ncn1)[C@H]1C[C@@H]1c1cccc(Cl)c1` (racemic) [Example 55, rac-(1S*,2S*)-2-(3-chlorophenyl)-N-(6-(((6-cyclopropylimidazo[1,2-a]pyridin-2-yl)methyl)amino)pyrimidin-4-yl)cyclopropane-1-carboxamide]: the EC50 lay in the range of 1 to 10 nM.

Regarding `O=C(Nc1cc(NCc2cn3cc(C4CC4)ccc3n2)ncn1)[C@H]1[C@H](F)[C@@H]1c1cccc(Cl)c1` (racemic) [Example 511, rac-(1R*,2R*,3S*)-2-(3-chlorophenyl)-N-(6-(((6-cyclopropylimidazo[1,2-a]pyridin-2-yl)methyl)amino)pyrimidin-4-yl)-3-fluorocyclopropane-1-carboxamide], the EC50 was in the range of 1 to 10 nM.

`O=C(Nc1cc(NCc2cn3cc(C4CC4)cc(N4CCCS4(=O)=O)c3n2)ccn1)[C@H]1C[C@@H]1c1cccc(Cl)c1` [Example 121]: the EC50 was under 1 nM.

Turning to `Cc1ccnc([C@H]2C[C@@H]2C(=O)Nc2cc(OCc3cn4cc(C5CC5)cc(N5CC6CC6C5=O)c4n3)cnn2)n1` (stereo partly drawn) [Example 571, (1S,2S)-N-(5-((6-cyclopropyl-8-(2-oxo-3-azabicyclo[3.1.0]hexan-3-yl)imidazo[1,2-a]pyridin-2-yl)methoxy)pyridazin-3-yl)-2-(4-methylpyrimidin-2-yl)cyclopropane-1-carboxamide], the EC50 was under 1 nM.

Take `Cc1cc(NCc2cn3cc(C4CC4)cc(N4CC(=O)N(C)C4=O)c3n2)cc(NC(=O)[C@H]2C[C@@H]2c2nccc(C)n2)n1` [Example I-642, (1S,2S)—N-(4-(((6-cyclopropyl-8-(3-methyl-2,4-dioxoimidazolidin-1-yl)imidazo[1,2-a]pyridin-2-yl)methyl)amino)-6-methylpyridin-2-yl)-2-(4-methylpyrimidin-2-yl)cyclopropane-1-carboxamide]: the EC50 was under 1 nM.

For the compound `CCc1cc(N2CC(=O)N(C)C2=O)c2nc([C@@H](C)Nc3cc(NC(=O)[C@H]4C[C@@H]4c4nccc(C)n4)nc(C)n3)cn2c1` [Example 429, (1S,2S)-N-(6-(((R)-1-(6-ethyl-8-(3-methyl-2,4-dioxoimidazolidin-1-yl)imidazo[1,2-a]pyridin-2-yl)ethyl)amino)-2-methylpyrimidin-4-yl)-2-(4-methylpyrimidin-2-yl)cyclopropane-1-carboxamide], the EC50 was under 1 nM.

As for `O=C(Nc1cc(N2CC[C@@H](O)[C@@H]2c2cn3cc(C4CC4)ccc3n2)ncn1)[C@H]1C[C@@H]1c1cccc(Cl)c1` [Example 485, (1S,2S)-2-(3-chlorophenyl)-N-(6-((2S,3R)-2-(6-cyclopropylimidazo[1,2-a]pyridin-2-yl)-3-hydroxypyrrolidin-1-yl)pyrimidin-4-yl)cyclopropane-1-carboxamide], the concentration for a half-maximal effect (EC50) lay in the range of 1000 to 6000 nM.

Take `N#Cc1cc(C2CC2)cn2cc(COc3ccnc(NC(=O)[C@H]4C[C@@H]4c4cccc(Cl)c4)c3)nc12` (racemic) [Example 567, rac-(1S*,2S*)-2-(3-chlorophenyl)-N-(4-((8-cyano-6-cyclopropylimidazo[1,2-a]pyridin-2-yl)methoxy)pyridin-2-yl)cyclopropane-1-carboxamide]: the EC50 was in the range of 10 to 100 nM.

For `COc1cc(NCc2cn3cc(C4CC4)ccc3n2)cc(NC(=O)[C@H]2C[C@@H]2c2cc(Cl)ccn2)n1` [Example 339, (1S,2S)-2-(4-chloropyridin-2-yl)-N-(4-(((6-cyclopropylimidazo[1,2-a]pyridin-2-yl)methyl)amino)-6-methoxypyridin-2-yl)cyclopropane-1-carboxamide], the EC50 fell in the range of 1 to 10 nM.
